For assay [1], the system named is H9c2 rat heart muscle cell. Description: Serum deprivation, cell viability by MTT test (H9c2). The class given is cell-based. The note with it: serum deprived H9c2, 10^−5 M, control 100%, serum deprived alone 50.5%, read-out: relative cell viability. As to the method: Experiments were carried out using WEH1 mouse fibrosarcoma and H9c2 rat heart muscle cell lines divided into three groups: • control (10% FCS fetal calf serum) • serum deprived • N-[2-hydroxy-3-(1-piperidinyl)propoxy]-3-pyridinecarboximidoyl chloride maleate (10^−5 M) treated and serum deprived 1.2(i) Serum Deprivation and MTT Test
We have screened various cell lines, drug concentrations, pretreatment and deprivation times and we have found the most appropriate conditions as follows: […] H9c2 rat heart muscle cell (n=6) and WEHI mouse fibrosarcoma cell (n=7) have been plated on 24 well plates in 10% FCS DMEM (Dulbecco modified Eagle's medium) and incubated for 2 hours at 37 C, 5% CO2. Medium has been discarded and replaced by 10% FCS DMEM containing 10^−5 M N-[2-hydroxy-3-(1-piperidinyl)propoxy ]-3-pyridinecarboximidoyl chloride maleate. […] Cell viability was measured by MTT test based on the method of Plumb et al. (Cancer Res. 49: 4435-4444 (1989)) The tetrazolium salt method involving conversion of MTT (3-(4,5-dimethylthiazol-2yl)-2,5-diphenyltetrazolium bromide) to colored formazan by alive cells, served as an indirect measurement of cell viability. […] O.D. of the plates was read at 570 nm on an ELISA plate reader (Labsystems Multiskan Biochromatic type:348). […] Relative cell viability was calculated defining control group as 100%.
(Tetrazolium dyes change colour on reduction, which living cells bring about.)

The subject of another assay is Male Sprague-Dawley rats. Description: Protection against cardiac ischaemia: survival after 5 minutes coronary occlusion and reperfusion. It counts as in vivo, rat.

For `O=C(O)/C=C\C(=O)O.OC(CON=C(Cl)c1cccnc1)CN1CCCCC1` (stereo not drawn) [N-[2-hydroxy-3-(1-piperidinyl)-propoxy]3-pyridinecarboximidoyl chloride maleate], the viability at 10 µM in assay [1] was determined as 82.8%. Further, the Survival (%) in the assay with Male Sprague-Dawley rats (20 mg/kgbw p.o.) is 100%; in the assay on Male Sprague-Dawley rats (i.v. 1 mg/kgbw, 5 min. before the occlusion, non-treated control 10), 100%.

As a reminder, the viability is a per cent measure of how many cells are alive, often set against a control.

The record behind these values is patent US7745465B2, “Method of enhancing cellular production of molecular chaperone, hydroxylamine derivatives useful for enhancing the chaperone production and the preparation thereof” (CytRx Corporation, priority 1995, dated 2010).
